# Source: US5859033A, “Anticonvulsant pyridinyl benzamide derivatives” (Bristol-Myers Squibb Company, priority 1997, dated 1999)
# What was measured:
# [1] = test system: pentylenetetrazole (PTZ)-induced seizure in female C57BI/6 mice; test: Pentylenetetrazole (PTZ)-induced seizure procedure; type: in vivo, mouse (female C57BI/6); conditions: 50 mg/kg i.p., 30 min before 75 mg/kg i.p. PTZ; for PTZ Anticonvulsive Results: Surv (survival at one hour postPTZ): one hour post PTZ
# Method: (§1) The compounds of Formula I are anticonvulsant agents. Their anticonvulsant properties were determined by pharmacologic testing, utilizing two standard animal models of epilepsy: the pentylenetetrazole (PTZ)-induced seizure procedure and the maximal electroshock test (MES). General descriptions of such testing can be found in J. F. Reinhard and J. F. Reinhard, Jr., "Experimental Evaluation of Anticonvulsants," in Anticonvulsants, J. A. Vida, Ed., Academic Press, New York, N.Y., 1977.
# The Pentylenetetrazole (PZT)-Induced Seizure Procedure
# In the PTZ procedure female C57BI/6 mice (17-26 g) were injected i.p. (vol=0.1 mL/20 g) with test compound or vehicle 30 min. before i.p. administration of 75 mg/kg pentylenetetrazol. Multiple doses of reference compounds (ethosuximide, trimethadione, and pentobarbital) were tested at the time of peak activity and at the dose range reported in the literature. Ten mice were used per group. After injection, mice were placed in individual observation cages and monitored for one hour. During the first 30 minutes following PTZ injection, seizure activity was recorded by measuring: the latency to the onset of pre-convulsive activity, the latency to the onset of the first clonic seizure longer than five seconds, the latency to the onset of the first intense-generalized clonic/tonic seizure, and the length of survival. During the second 30 min. period, only time of death was recorded. Those compounds that produced a significant delay in the onset of seizure activity or delayed (or abolished) mortality when compared to that produced by vehicle were classified as anticonvulsants. Significant difference between animals treated with vehicle or test compound were determined using the Student's t-test.
# [2] = test system: tonic seizure (maximum electroshock) in female C57BI/6 mice; test: Maximum Electroshock (MES) procedure; type: in vivo, mouse (female C57BI/6); conditions: Mus musculus, ip, 0.5 h, i.p. 30 min before MES, abolition of hindlimb tonic extension, read-out: MES Results: median effective dose (ED50)
# Method: as §1
# The Maximum Electroshock (MES) Procedure
# In the MES procedure a tonic seizure was produced in female C57BI/6 mice (17-26 g) by the delivery of a 50 milliamps current through corneal electrodes for 0.2 sec. Before testing, animals were allowed food and water ad libitum. Compounds were injected i.p. (vol=0.1 mL/20 g) 30 min. before the MES. Reference compounds (phenytoin, carbamazepine, phenobarbital, and valproic acid) were tested at the time of peak activity and at the dose range reported in the literature. Seven mice were used per group. In this test anticonvulsive activity was indicated by the abolition of the hindlimb tonic extension. The median effective dose (ED50) was obtained for each compound.
Compound,PTZ Anticonvulsive Results: First (latency to first seizure) [1],"PTZ Anticonvulsive Results: IGS (onset of intense, generalized seizures) [1]",PTZ Anticonvulsive Results: Pre (latency to first twitch) [1],PTZ Anticonvulsive Results: Surv Time (duration of survival) [1],PTZ Anticonvulsive Results: Surv (survival at one hour postPTZ) [1],ED50 [2] [mg/kg]
"COc1cc(N)c(Cl)cc1C(=O)NCc1cccnc1 [Example 1, 4-Amino-5-chloro-2-methoxy-N-(3-pyridinylmethyl)benzamide]",++++ (++++ = > 400% of controls),+++ (+++ = > 300% of controls),++ (++ = > 200% of controls),++++ (++++ = > 400% of controls),++++ (++++ = > 400% of controls),< 75
"COc1cc(N)c(Cl)cc1C(=O)NCc1ccccn1 [Example 2, 4-Amino-5-chloro-2-methoxy-N-(2-pyridinylmethyl)benzamide]",++++ (++++ = > 400% of controls),,++ (++ = > 200% of controls),+++ (+++ = > 300% of controls),++++ (++++ = > 400% of controls),
"COc1cc(N)c(Cl)cc1C(=O)NCc1ccncc1 [Example 3, 4-Amino-5-chloro-2-methoxy-N-(4-pyridinylmethyl)benzamide]",++++ (++++ = > 400% of controls),+++ (+++ = > 300% of controls),++ (++ = > 200% of controls),++++ (++++ = > 400% of controls),++++ (++++ = > 400% of controls),< 10
